What was measured:
[1] = target: T1, NHE3 (Homo sapiens, UniProt P48764); test: Cell-based assay of NHE-3 activity (persistent inhibition), human; settings: human Persistence, 60 min incubation then washout
T1 construct: expressed in transfected cells
T1 sequence (P48764 26-834): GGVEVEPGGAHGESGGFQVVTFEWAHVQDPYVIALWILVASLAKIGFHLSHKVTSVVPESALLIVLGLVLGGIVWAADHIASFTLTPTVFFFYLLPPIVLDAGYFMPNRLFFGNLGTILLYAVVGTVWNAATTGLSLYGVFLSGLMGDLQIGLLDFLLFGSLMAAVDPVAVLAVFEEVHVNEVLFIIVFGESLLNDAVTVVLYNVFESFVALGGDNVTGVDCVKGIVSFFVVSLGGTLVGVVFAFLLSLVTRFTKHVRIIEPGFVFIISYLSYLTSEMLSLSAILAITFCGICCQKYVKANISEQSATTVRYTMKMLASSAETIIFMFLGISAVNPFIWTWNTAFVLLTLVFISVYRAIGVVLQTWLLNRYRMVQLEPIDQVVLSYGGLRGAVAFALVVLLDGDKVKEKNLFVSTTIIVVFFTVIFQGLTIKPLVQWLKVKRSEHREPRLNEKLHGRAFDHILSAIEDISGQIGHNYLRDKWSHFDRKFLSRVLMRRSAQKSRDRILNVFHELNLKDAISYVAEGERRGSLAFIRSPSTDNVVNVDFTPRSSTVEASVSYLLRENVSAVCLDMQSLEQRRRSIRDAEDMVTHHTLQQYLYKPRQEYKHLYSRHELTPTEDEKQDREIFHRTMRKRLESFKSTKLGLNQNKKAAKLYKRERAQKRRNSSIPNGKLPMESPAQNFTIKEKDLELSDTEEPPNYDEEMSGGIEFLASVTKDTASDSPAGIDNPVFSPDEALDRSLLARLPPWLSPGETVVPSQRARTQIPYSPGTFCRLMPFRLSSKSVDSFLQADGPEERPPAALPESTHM
T1 sequence (Q99653 2-195 partner limits assumed): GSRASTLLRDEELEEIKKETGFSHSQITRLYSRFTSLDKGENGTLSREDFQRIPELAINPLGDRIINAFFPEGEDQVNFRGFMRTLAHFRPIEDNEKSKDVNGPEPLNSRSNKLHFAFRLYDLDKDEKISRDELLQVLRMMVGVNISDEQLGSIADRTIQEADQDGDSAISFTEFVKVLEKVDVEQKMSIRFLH
Procedure, shortened: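 Persistent inhibition: compound (0-30 μM, 60 min, RT, NaCl-HEPES pH 7.4) removed before assay. Human NHE3/NHERF2 PS120 cells were then BCECF-loaded during NH4Cl pulse (30 min, 37 °C), acidified in Na+-free buffer, and Na+ added 10 min after washout; antiport measured as initial fluorescence-ratio change per minute.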

[2] = target: T1, NHE3; test: Cell-based assay of NHE-3 activity (pre-incubation inhibition), human; settings: human Preincubation; for pIC50 / IC50: 0-30 μM test compound
Procedure, shortened: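 Activity read as initial rate of BCECF fluorescence ratio change per minute (ex 439/505, em 538 nm) following NH4Cl prepulse acid loading. Compound (0–30 μM) present during 10 min Na+-free acidification at room temperature; cells were PS120 fibroblasts stably co-expressing human NHE3 and NHERF2.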

| % inhibition [1] | pIC50 [1] | % inhibition [2] | pIC50 [2] | IC50 [1] | IC50 [2] | Compound |
| --- | --- | --- | --- | --- | --- | --- |
| A (NHE3 < 40%) | A (NHE3 pIC50 < 6) | A (NHE3 < 40%) | A (NHE3 pIC50 < 6) |  |  | C[C@@H]1CCCCN1[C@H]1Cc2c(Cl)cc(Cl)cc2[C@@H]1Oc1ccc(S(=O)(=O)NCCOCCOCCNC(=O)NCCCCNC(=O)NCCOCCOCCNS(=O)(=O)c2ccc(O[C@H]3c4cc(Cl)cc(Cl)c4C[C@@H]3N3CCCC[C@H]3C)cc2)cc1 [Example 66, 3-[2-(2-[2-[(4-[[(1S,2S)-4,6-Dichloro-2-[(2R)-2-methylpiperidin-1-yl]-2,3-dihydro-1H-inden-1-yl]oxy]benzene)sulfonamido]ethoxy]ethoxy)ethyl]-1-[4-([[2-(2-[2-[(4-[[(1S,2S)-4,6-dichloro-2-[(2R)-2-methylpiperidin-1-yl]-2,3-dihydro-1H-inden-1-yl]oxy]benzene)sulfonamido]ethoxy]ethoxy)ethyl]carbamoyl]amino)butyl]urea] |
| B (40-70%) |  | C (>70%) |  | 100 to 1000 nM | 100 to 1000 nM | C[C@H]1CCCCN1[C@H]1Cc2c(Cl)cc(Cl)cc2[C@@H]1Oc1ccc(S(=O)(=O)NCCOCCOCCNC(=O)NCCCCNC(=O)NCCOCCOCCNS(=O)(=O)c2ccc(O[C@H]3c4cc(Cl)cc(Cl)c4C[C@@H]3N3CCCC[C@@H]3C)cc2)cc1 [Example 67, 3-[2-(2-[2-[(4-[[(1S,2S)-4,6-Dichloro-2-[(2S)-2-methylpiperidin-1-yl]-2,3-dihydro-1H-inden-1-yl]oxy]benzene)sulfonamido]ethoxy]ethoxy)ethyl]-1-[4-([[2-(2-[2-[(4-[[(1S,2S)-4,6-dichloro-2-[(2S)-2-methylpiperidin-1-yl]-2,3-dihydro-1H-inden-1-yl]oxy]benzene)sulfonamide]ethoxy]ethoxy)ethyl]carbamoyl]amino)butyl]urea] |
| C (>70%) | C (NHE3 pIC50 > 7) | C (>70%) | C (NHE3 pIC50 > 7) |  |  | O=C(NCCCCNC(=O)NCCOCCOCCNS(=O)(=O)c1ccc(O[C@H]2c3cc(Cl)cc(Cl)c3C[C@@H]2N2CC3CCC2C3)cc1)NCCOCCOCCNS(=O)(=O)c1ccc(O[C@H]2c3cc(Cl)cc(Cl)c3C[C@@H]2N2CC3CCC2C3)cc1 [Example 68] |
| C (>70%) |  | C (>70%) | C (NHE3 pIC50 > 7) | 100 to 1000 nM |  | O=C(NCCCCNC(=O)NCCOCCOCCNS(=O)(=O)c1ccc(O[C@H]2c3cc(Cl)cc(Cl)c3C[C@@H]2N2CC3CCC2CC3)cc1)NCCOCCOCCNS(=O)(=O)c1ccc(O[C@H]2c3cc(Cl)cc(Cl)c3C[C@@H]2N2CC3CCC2CC3)cc1 [Example 69, 1-[2-(2-[2-[(4-[[(1S,2S)-2-[2-Azabicyclo[2.2.2]octan-2-yl]-4,6-dichloro-2,3-dihydro-1H-inden-1-yl]oxy]benzene)sulfonamido]ethoxy]ethoxy)ethyl]-3-[4-([[2-(2-[2-[(4-[[(1S,2S)-2-[2-azabicyclo[2.2.2]octan-2-yl]-4,6-dichloro-2,3-dihydro-1H-inden-1-yl]oxy]benzene)sulfonamido]ethoxy]ethoxy)ethyl]carbamoyl]amino)butyl]urea] |
| C (>70%) |  | C (>70%) |  | 100 to 1000 nM |  | CN1CCN([C@H]2Cc3c(Cl)cc(Cl)cc3[C@@H]2Oc2ccc(S(=O)(=O)NCCOCCOCCNC(=O)NCCCCNC(=O)NCCOCCOCCNS(=O)(=O)c3ccc(O[C@H]4c5cc(Cl)cc(Cl)c5C[C@@H]4N4CCN(C)CC4)cc3)cc2)CC1 [Example 72, 3-[2-(2-[2-[(4-[[(1S,2S)-4,6-Dichloro-2-(4-methylpiperazin-1-yl)-2,3-dihydro-1H-inden-1-yl]oxy]benzene)sulfonamido]ethoxy]ethoxy)ethyl]-1-[4-([[2-(2-[2-[(4-[[(1S,2S)-4,6-dichloro-2-(4-methylpiperazin-1-yl)-2,3-dihydro-1H-inden-1-yl]oxy]benzene)sulfonamido]ethoxy]ethoxy)ethyl]carbamoyl]amino)butyl]urea a; bis(trifluoroacetic acid)] |
| B (40-70%) | A (NHE3 pIC50 < 6) | C (>70%) |  |  | 100 to 1000 nM | Cc1cc(S(=O)(=O)NCCOCCOCCNC(=O)NCCCCNC(=O)NCCOCCOCCNS(=O)(=O)c2ccc(O[C@H]3c4cc(Cl)cc(Cl)c4C[C@@H]3N3CCN(C)CC3)c(C)c2)ccc1O[C@H]1c2cc(Cl)cc(Cl)c2C[C@@H]1N1CCN(C)CC1 [Example 73] |
| A (NHE3 < 40%) | A (NHE3 pIC50 < 6) | C (>70%) | A (NHE3 pIC50 < 6) |  |  | CC(=O)N1CCN([C@H]2Cc3c(Cl)cc(Cl)cc3[C@@H]2Oc2ccc(S(=O)(=O)NCCOCCOCCNC(=O)NCCCCNC(=O)NCCOCCOCCNS(=O)(=O)c3ccc(O[C@H]4c5cc(Cl)cc(Cl)c5C[C@@H]4N4CCN(C(C)=O)CC4)cc3)cc2)CC1 [Example 74, 3-[2-(2-[2-[(4-[[(1S,2S)-2-(4-Acetylpiperazin-1-yl)-4,6-dichloro-2,3-dihydro-1H-inden-1-yl]oxy]benzene)sulfonamido]ethoxy]ethoxy)ethyl]-1-[4-([[2-(2-[2-[(4-[[(1S,2S)-2-(4-acetylpiperazin-1-yl)-4,6-dichloro-2,3-dihydro-1H-inden-1-yl]oxy]benzene)sulfonamido]ethoxy]ethoxy)ethyl]carbamoyl]amino)butyl]urea] |
| A (NHE3 < 40%) |  | B (40-70%) |  |  | 100 to 1000 nM | CC(=O)N1CCN([C@H]2Cc3c(Cl)cc(Cl)cc3[C@@H]2Oc2ccc(S(=O)(=O)NCCOCCOCCNC(=O)NCCCCNC(=O)NCCOCCOCCNS(=O)(=O)c3ccc(O[C@H]4c5cc(Cl)cc(Cl)c5C[C@@H]4N4CCN(C(C)=O)CC4)c(C)c3)cc2C)CC1 [Example 75, 3-[2-(2-[2-[(4-[[(1S,2S)-2-(4-Acetylpiperazin-1-yl)-4,6-dichloro-2,3-dihydro-1H-inden-1-yl]oxy]-3-methylbenzene)sulfonamido]ethoxy]ethoxy)ethyl]-1-[4-([[2-(2-[2-[(4-[[(1S,2S)-2-(4-acetylpiperazin-1-yl)-4,6-dichloro-2,3-dihydro-1H-inden-1-yl]oxy]-3-methylbenzene)sulfonamido]ethoxy]ethoxy)ethyl]carbamoyl]amino)butyl]urea; bis(trifluoroacetic acid)] |

| Compound | % inhibition [1] | pIC50 [1] | % inhibition [2] | pIC50 [2] | IC50 [1] | IC50 [2] |
| --- | --- | --- | --- | --- | --- | --- |
| O=C(NCCCCNC(=O)NCCOCCOCCNS(=O)(=O)c1ccc(O[C@H]2c3cc(Cl)cc(Cl)c3C[C@@H]2N2C3CCCC2CC3)cc1)NCCOCCOCCNS(=O)(=O)c1ccc(O[C@H]2c3cc(Cl)cc(Cl)c3C[C@@H]2N2C3CCCC2CC3)cc1 [Example 70, 3-[2-(2-[2-[(4-[[(1S,2S)-2-[8-azabicyclo[3.2.1]octan-8-yl]-4,6-dichloro-2,3-dihydro-1H-inden-1-yl]oxy]benzene)sulfonamido]ethoxy]ethoxy)ethyl]-1-[4-([[2-(2-[2-[(4-[[(1S,2S)-2-[8-azabicyclo[3.2.1]octan-8-yl]-4,6-dichloro-2,3-dihydro-1H-inden-1-yl]oxy]benzene)sulfonamido]ethoxy]ethoxy)ethyl]carbamoyl]amino)butyl]urea] | C (>70%) |  | C (>70%) |  |  |  |
| O=C(NCCCCNC(=O)NCCOCCOCCNS(=O)(=O)c1ccc(O[C@H]2c3cc(Cl)cc(Cl)c3C[C@@H]2N2C3CCCC2CCC3)cc1)NCCOCCOCCNS(=O)(=O)c1ccc(O[C@H]2c3cc(Cl)cc(Cl)c3C[C@@H]2N2C3CCCC2CCC3)cc1 [Example 71, 1-[2-(2-[2-[(4-[[(1S,2S)-2-[9-Azabicyclo[3.3.1]nonan-9-yl]-4,6-dichloro-2,3-dihydro-1H-inden-1-yl]oxy]benzene)sulfonamido]ethoxy]ethoxy)ethyl]-3-[4-([[2-(2-[2-[(4-[[(1S,2S)-2-[9-azabicyclo[3.3.1]nonan-9-yl]-4,6-dichloro-2,3-dihydro-1H-inden-1-yl]oxy]benzene)sulfonamido]ethoxy]ethoxy)ethyl]carbamoyl]amino)butyl]urea] | B (40-70%) | A (NHE3 pIC50 < 6) | B (40-70%) | A (NHE3 pIC50 < 6) |  |  |

From patent US11242337B2, “Compounds useful for treating gastrointestinal tract disorders” (Ardelyx, Inc., priority 2017, dated 2022)
